From PMC8343220, “The selectivity of α‐adrenoceptor agonists for the human α1A, α1B, and α1D‐adrenoceptors” (Pharmacology Research & Perspectives, 2021)

Columns and labels:
human α1B‐adrenoceptor [1] = target: T1, human α1B‐adrenoceptor (Homo sapiens, UniProt P35368); test: ^3H‐prazosin whole‐cell radioligand binding, CHO‐α1B cells; conditions: CHO‐α1B cells
T1 construct: expressed in transfected cells; host or cells: CHO-K1
T1 sequence (P35368 1-520): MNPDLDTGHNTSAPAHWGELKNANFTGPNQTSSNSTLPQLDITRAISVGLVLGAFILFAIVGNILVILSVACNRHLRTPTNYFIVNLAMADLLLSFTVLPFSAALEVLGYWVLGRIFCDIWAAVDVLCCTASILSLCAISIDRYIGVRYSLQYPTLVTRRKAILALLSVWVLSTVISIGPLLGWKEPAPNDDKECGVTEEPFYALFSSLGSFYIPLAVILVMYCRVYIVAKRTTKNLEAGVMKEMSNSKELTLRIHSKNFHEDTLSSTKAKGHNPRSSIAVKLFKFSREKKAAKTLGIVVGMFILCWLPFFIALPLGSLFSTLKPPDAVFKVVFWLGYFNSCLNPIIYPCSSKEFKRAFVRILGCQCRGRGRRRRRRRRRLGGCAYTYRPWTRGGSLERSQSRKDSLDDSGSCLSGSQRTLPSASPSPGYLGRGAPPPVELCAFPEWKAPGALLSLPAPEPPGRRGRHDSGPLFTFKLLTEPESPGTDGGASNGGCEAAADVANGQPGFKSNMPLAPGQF

[2] = target: T2, human α1D‐adrenoceptor (full length) (Homo sapiens, UniProt P25100); test: ^3H‐prazosin whole‐cell radioligand binding, CHO‐α1D cells; conditions: for 3H‐prazosin binding Log KD / Log KD α1D, ^3H‐prazosin whole cell binding: CHO‐α1D cells; for 3H‐prazosin binding Log KD: whole‐cell binding (from Table 1), log values given negative; for Log KD α1D, ^3H‐prazosin whole cell binding: given as log KD (negative), mean ± SEM, 'early plateau' = specific binding not fully inhibited
T2 construct: human α1D‐adrenoceptor (full length) were used; expressed in transfected cells; host or cells: CHO-K1
T2 sequence (P25100 1-572): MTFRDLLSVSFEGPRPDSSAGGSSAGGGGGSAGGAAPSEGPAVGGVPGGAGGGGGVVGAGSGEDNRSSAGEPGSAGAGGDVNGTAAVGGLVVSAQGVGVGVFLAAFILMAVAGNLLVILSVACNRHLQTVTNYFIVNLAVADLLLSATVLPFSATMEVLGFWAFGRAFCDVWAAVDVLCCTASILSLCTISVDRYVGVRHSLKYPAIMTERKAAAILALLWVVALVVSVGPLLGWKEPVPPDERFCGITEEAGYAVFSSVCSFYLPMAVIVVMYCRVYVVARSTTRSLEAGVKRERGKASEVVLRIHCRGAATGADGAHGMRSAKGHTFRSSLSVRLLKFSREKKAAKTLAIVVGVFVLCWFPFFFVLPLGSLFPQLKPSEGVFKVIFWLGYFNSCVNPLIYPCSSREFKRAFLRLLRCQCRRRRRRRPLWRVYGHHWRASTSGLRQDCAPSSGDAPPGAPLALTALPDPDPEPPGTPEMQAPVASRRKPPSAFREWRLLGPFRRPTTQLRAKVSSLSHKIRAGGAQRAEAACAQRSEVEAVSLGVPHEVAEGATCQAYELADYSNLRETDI

human α1A‐adrenoceptor [3] = target: T3, human α1A‐adrenoceptor (Homo sapiens, UniProt P35348); test: Intracellular free calcium mobilization, CHO‐α1A cells; type: cell-based; conditions: CHO‐α1A cells; for Intracellular calcium release % ionomycin: maximal response as % of 10 µM ionomycin
T3 construct: expressed in transfected cells; host or cells: CHO-K1
T3 sequence (P35348 1-466): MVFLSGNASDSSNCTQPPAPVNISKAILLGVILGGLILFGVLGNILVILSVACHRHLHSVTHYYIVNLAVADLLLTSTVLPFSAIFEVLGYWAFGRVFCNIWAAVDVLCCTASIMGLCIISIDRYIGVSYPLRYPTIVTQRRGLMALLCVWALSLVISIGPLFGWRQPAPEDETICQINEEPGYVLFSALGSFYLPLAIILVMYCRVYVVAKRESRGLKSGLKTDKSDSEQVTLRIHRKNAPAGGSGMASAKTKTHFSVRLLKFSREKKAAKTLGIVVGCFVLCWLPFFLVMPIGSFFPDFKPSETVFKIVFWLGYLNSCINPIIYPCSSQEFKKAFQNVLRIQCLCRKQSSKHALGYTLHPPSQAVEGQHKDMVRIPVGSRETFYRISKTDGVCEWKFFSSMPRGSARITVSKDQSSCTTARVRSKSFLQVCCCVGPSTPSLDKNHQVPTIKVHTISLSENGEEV

human α1B‐adrenoceptor [4] = target: T1, human α1B‐adrenoceptor; test: Intracellular free calcium mobilization, CHO‐α1B cells; type: cell-based; conditions: CHO‐α1B cells; for Intracellular calcium release Log EC50: given as log EC50 (negative numbers); for Intracellular calcium release % ionomycin: maximal response as % of 10 µM ionomycin response
[5] = target: T2, human α1D‐adrenoceptor (full length); test: Intracellular free calcium mobilization, CHO‐α1D cells; type: cell-based; conditions: CHO‐α1D cells; for Intracellular calcium release Log EC50: log values given negative; for Intracellular calcium release % ionomycin: maximal response as % of 10 µM ionomycin
human α1A‐adrenoceptor [6] = target: T3, human α1A‐adrenoceptor; test: ERK1/2‐phosphorylation (Surefire Alphascreen), CHO‐α1A cells; type: cell-based; conditions: CHO‐α1A cells, ^a bi‐phasic: initial stimulatory part; for ERK1/2‐phosphorylation % PDBu: % of 10 µM PDBu
human α1B‐adrenoceptor [7] = target: T1, human α1B‐adrenoceptor; test: ERK1/2‐phosphorylation (Surefire Alphascreen), CHO‐α1B cells; type: cell-based; conditions: CHO‐α1B cells, for bi‐phasic responses the initial stimulatory part; for ERK1/2‐phosphorylation % PDBu: maximal response as % PDBu response
[8] = target: T2, human α1D‐adrenoceptor (full length); test: ERK1/2‐phosphorylation (Surefire Alphascreen), CHO‐α1D cells; type: cell-based; conditions: CHO‐α1D cells
[9] = system: parental CHO cell line without any transfected receptors; test: ERK1/2‐phosphorylation, parent CHO cells without transfected receptors; type: cell-based, Chinese hamster; conditions: CHO cells without transfected receptors; maximal response as % of PDBu (10μM) response; mean ± s.e.m.
human α1A‐adrenoceptor [10] = target: T3, human α1A‐adrenoceptor; test: ^3H‐cAMP accumulation, CHO‐α1A cells; type: cell-based; conditions: CHO‐α1A cells; for cAMP accumulation % forskolin: % of 10 µM forskolin response
human α1B‐adrenoceptor [11] = target: T1, human α1B‐adrenoceptor; test: ^3H‐cAMP accumulation, CHO‐α1B cells; type: cell-based; conditions: CHO‐α1B cells; for cAMP accumulation % forskolin: % forskolin maximum response
[12] = target: T2, human α1D‐adrenoceptor (full length); test: ^3H‐cAMP accumulation, CHO‐α1D cells; type: cell-based; conditions: cAMP accumulation without forskolin
human α1B‐adrenoceptor [13] = target: T1, human α1B‐adrenoceptor; test: ^3H‐cAMP accumulation in the presence of 10 μM forskolin, CHO‐α1B cells; type: cell-based; conditions: CHO‐α1B cells
[14] = target: T2, human α1D‐adrenoceptor (full length); test: ^3H‐cAMP accumulation in the presence of 10 μM forskolin, CHO‐α1D cells; type: cell-based; conditions: CHO‐α1D cells; for cAMP (in presence of forskolin) Log EC50: log values given negative
[15] = system: parental CHO cell line without any transfected receptors; test: Forskolin‐stimulated cAMP accumulation, parent CHO cells without transfected receptors; type: cell-based, Chinese hamster; conditions: CHO cells without transfected receptors; in presence of forskolin
human α1A‐adrenoceptor [16] = target: T3, human α1A‐adrenoceptor; test: ^3H‐prazosin whole‐cell radioligand binding, CHO‐α1A cells
human α1A‐adrenoceptor [17] = target: T3, human α1A‐adrenoceptor; test: ^3H‐cAMP accumulation in the presence of 10 μM forskolin, CHO‐α1A cells; type: cell-based; conditions: CHO‐α1A cells
[18] = fold increase of the forskolin response

Row | SMILES | 3H‐prazosin binding Log KD [2] | Log KD α1D, ^3H‐prazosin whole cell binding [2] | Intracellular calcium release % ionomycin (human α1A‐adrenoceptor [3]) [%] | Intracellular calcium release Log EC50 (human α1B‐adrenoceptor [4]) | Intracellular calcium release % ionomycin (human α1B‐adrenoceptor [4]) [%] | Intracellular calcium release Log EC50 [5] | Intracellular calcium release % ionomycin [5] [%] | ERK1/2‐phosphorylation % PDBu (human α1A‐adrenoceptor [6]) [%] | ERK1/2‐phosphorylation % PDBu (human α1B‐adrenoceptor [7]) [%] | cAMP accumulation % forskolin (human α1A‐adrenoceptor [10]) [%] | cAMP accumulation Log EC50 (human α1B‐adrenoceptor [11]) | cAMP accumulation % forskolin (human α1B‐adrenoceptor [11]) [%] | cAMP Log EC50 [12] | cAMP accumulation (in presence of forskolin) Log EC50 (human α1B‐adrenoceptor [13]) | cAMP (in presence of forskolin) Log EC50 [14] | also measured
1 | CS(=O)(=O)Nc1c(O)ccc2c1CCCC2C1=NCCN1 (stereo not drawn) [A61603] | −3.92 | −3.92 ± 0.11 | 61.0 ± 3.8 | −6.52 ± 0.08 | 35.7 ± 3.7 | −5.29 ± 0.12 | 12.0 ± 3.6 | 74.8 ± 4.5 | 54.5 ± 7.9 | 142.7 ± 8.7 | −5.63 ± 0.18 | 5.3 ± 0.5 | No response | −6.16 ± 0.09 | No response | IC50 (log), ^3H‐prazosin binding (human α1B‐adrenoceptor [1]; log IC50 bound given where no KD could be determined): IC50 > −4; Log IC50 α1B, ^3H‐prazosin whole cell binding (human α1B‐adrenoceptor [1]; printed as IC50> log value): IC50 >−4; ERK1/2‐phosphorylation % PDBu at 100 µM ([8]; response at 100 µM ligand (no EC50 given)): 11.7 ± 2.9%; ERK1/2-phosphorylation % PDBu [9]: No response; cAMP accumulation (in presence of forskolin) Log EC50 [15]: No response
2 | CCc1cccc(CC)c1NC1=NCCN1 [ST‐91] | −5.24 | −5.24 ± 0.09 | 64.6 ± 2.6 | −8.13 ± 0.17 | 62.0 ± 2.1 | −6.34 ± 0.15 | 6.3 ± 1.6 | 79.5 ± 5.2 | 83.6 ± 8.9 | 108.2 ± 12.5 | −6.52 ± 0.04 | 30.4 ± 3.5 | No response | −7.23 ± 0.07 | No response | Log KD α1A, ^3H‐prazosin whole cell binding (human α1A‐adrenoceptor [16]; CHO‐α1A cells, given as log KD (negative), mean ± SEM): −5.94 ± 0.01; Affinity selectivity ratio α1A vs α1B (human α1A‐adrenoceptor [16]; higher affinity for α1A than α1B): 35.5 fold; Affinity selectivity ratio α1A vs α1D (human α1A‐adrenoceptor [16]; higher affinity for α1A than α1D): 5.0 fold; Log KD, ^3H‐prazosin binding (human α1B‐adrenoceptor [1]; whole‐cell binding (from Table 1), given as log KD (negative numbers)): −4.39; Log KD α1B, ^3H‐prazosin whole cell binding (human α1B‐adrenoceptor [1]; given as log KD (negative), mean ± SEM): −4.39 ± 0.04; Affinity selectivity ratio α1B vs α1D ([2]; higher affinity for α1D than α1B): 7.1 fold; Log efficacy ratio KD /EC50 (human α1A‐adrenoceptor [3]; binding KD and calcium EC50): 3.14; Intracellular calcium release Log EC50 (human α1A‐adrenoceptor [3]; given as log EC50 (negative)): −9.08 ± 0.11; Log efficacy ratio KD /EC50 (human α1B‐adrenoceptor [4]; intrinsic efficacy ratio, KD from binding / EC50 calcium, log): 3.74; Log efficacy ratio KD /EC50 ([5]; intrinsic efficacy ratio, binding KD / calcium EC50): 1.10; ERK1/2‐phosphorylation Log EC50 (human α1A‐adrenoceptor [6]; 2–4 min, ^b also active in parent CHO cells): −8.70 ± 0.06; ERK1/2‐phosphorylation Log EC50 (human α1B‐adrenoceptor [7]): −7.33 ± 0.12; ERK1/2‐phosphorylation Log EC50 ([8]; log values given negative): −5.23 ± 0.21; ERK1/2‐phosphorylation % PDBu ([8]; maximal response as % of PDBu): 21.1 ± 4.4%; cAMP accumulation Log EC50 (human α1A‐adrenoceptor [10]; 5 h): −6.80 ± 0.05; cAMP accumulation (in presence of forskolin) Log EC50 (human α1A‐adrenoceptor [17]; 10 μM forskolin): −7.86 ± 0.14; cAMP accumulation (in presence of forskolin) Fold increase (human α1A‐adrenoceptor [17]; [18]): 2.17 ±.10 fold; cAMP accumulation (in presence of forskolin) Fold increase (human α1B‐adrenoceptor [13]; [18]): 2.34 ± 0.09 fold; cAMP (in presence of forskolin) Fold increase [14, 18]: No response
